# Results reported in US10730892B2, “Homoallylamines as formaldehyde-responsive triggers” (The Regents of the University of California, priority 2015, dated 2020).
# Where “and” joins values, the source holds several entries; their conditions need not be identical. Equal values may be shown once. Read-outs that look alike come from different tables or passages of the source.
# Experiments:
# [1] = test system: HEK293TN and NS1 cells; settings: 1 μM FP1 for 8 min, imaged after 30 min and after 8 hrs
# Description: (§1) For example, semicarbazide-sensitive amine oxidase (SSAO) is primarily localized to the plasma membrane (Andres et al., J. Histochem. Cytochem. 2001, 49:209). Thus, both HEK293TN and NS1 cells were costained with ER-Tracker Green, LysoTracker Green DND-26, and MitoTracker Green FM, fluorescent indicators that are known to selectively stain the endoplasmic reticulum, lysosome, and mitochondria, respectively in almost all cell types (FIG. 17A and FIG. 17B).
# [2] = test system: HEK293TN cells; settings: 100 scans at 25% laser power, pinhole 1 airy unit
# Description: as §1
# [3] = test system: HEK293TN cells
# Protocol: (§2) FIG. 9 depicts live-cell imaging of HEK293TN cells. […] Cells were irradiated with the 633 nm HeNe laser set at 3% power with a pinhole size of 1 airy unit. The emission was collected between 645 and 800 nm. Scale bar represents 20 μm. Pseudo-coloring represents intensity distribution from highest intensity indicated by white to the lowest intensity designated by black.
# (§3) FIG. 10 depicts the quantification of observed fluorescence intensity by confocal imaging in HEK293TN cells after incubation with 1 mM, 2.5 mM or 5 mM FA for 1 (light grey bars), 2 (dark grey bars) and 3 hrs (black bars). A DMEM vehicle was added to control cells which was normalized to 1 (white bars). […] For each condition, a minimum of 5 images were averaged (n>5). Errors represent standard deviation.
# (§4) HEK293TN cells were obtained from Prof. Paul Hergenrother (UIUC, Chemistry) and cultured in phenol-red free Dulbecco's modified eagle medium (DMEM, Corning) supplemented with 10% fetal bovine serum (FBS, Sigma Aldrich), and 1% penicillin/streptomycin (Corning). Neuroscreen-1 cells were obtained from Prof. Kai Zhang (UIUC, Biochemistry) and cultured in Ham's F-12K medium (Sigma Aldrich) supplemented with 15% horse serum (Hyclone), 2.5% fetal bovine serum (FBS, Sigma Aldrich), and 1% penicillin/streptomycin (Corning). Cells were incubated at 37° C. and 5% CO2. One day before imaging, cells were passed and plated on 8-well chambered coverglasses (Lab-Tek) at a density of 40,000 cells per mL (or 20,000 cells per well). Cells would reach 70-80% confluency before imaging. […] Samples of HEK293TN and NS1 cells for flow cytometry were prepared by passaging and seeding each well of a 6-well cluster culture dish (Cyto-One) with 300,000 cells one day before experiments. […] Stained cells were aspirated and serum-free DMEM added. Subsequently, a 10× concentrated FA solution was added to give a final concentration of 1.0 mM. 2.5 mM and 5 mM. After incubation cells with FA, the media was removed and replaced with serum-free DMEM. Finally, cells were trypsinized, pelleted via centrifugation, resuspended in phosphate-buffered saline (PBS) for flow cytometric analysis.
# (§5) Prior to imaging, cells were allowed to recover in FA-free buffer for 30 min. […] Because FA is a powerful fixative, cell viability assays were performed to determine the cytotoxicity of FA under experimental conditions. A dye exclusion protocol was employed, utilizing trypan blue to selectively stain and distinguish dead cells from those that were viable. […] To further verify that the cell populations under investigation were indeed alive, DAPI, a cell permeable nuclear and chromosome counterstain, was employed to identify intact nuclei (FIG. 16).
# [4] = Fluorescence properties of compounds 3, 4, 5 and FP1 (Table 1); type: physicochemical
# Description: Such red-shifted fluorophores are desirable because of low autofluorescence, minimal phototoxicity, and negligible interference from biomolecules when employed in live cell imaging. […] In the presence of FA, a reversible condensation event yielded an iminium intermediate which can undergo a charge-promoted [3,3]-sigmatropic rearrangement-hydrolysis sequence to expel the aryl nitro group and afford a highly fluorescent indole-3-carboxaldehyde product (ΦF=0.11) (Table 1). Of note, the aldehyde is strategically positioned at C3 such that after the reaction cascade, the N1 lone pair electrons can delocalize into the π-system rather than quench fluorescence via an acceptor-excited PeT (a-PeT) pathway. In this regard, silicon rhodol 3, without the carboxaldehyde, is non-fluorescent (Table 1).
# [5] = Protocol: Time points on graph are 0, 30, 60, 90, 120, 150, and 180 min. […] Bars represent normalized fold-changes in response to treatment with each analyte listed at 1 mM for 3 hrs.
# In addition to its ability to crosslink biomolecules, FA is cytotoxic through the induction of oxidative stress (Zararsiz et al., Cell Biochem. Fund. 2007, 25:413).
# [6] = test system: HEK293TN and NS1 cells; settings: 2 μM FP1, 1 μM tracker, both cell lines
# Description: Scale bar represents 20 μm.
# as §1
# [7] = test system: Neuroscreen-1 (NS1) cells
# Protocol: as §2, with “12” for “9”, “NS1” for “HEK293TN”
# as §3, with “13” for “10”, “depicts” for “depicts the”, “NS1” for “HEK293TN”, “h” for “hrs”, “Ham's F-12K” for “DMEM”
# FIG. 20 depicts quantification of data obtained from confocal microscopy images acquired by irradiation of NS1 cells treated with a vehicle control, 0.25 mM and 0.5 mM FA at 37° C. for 3 hrs with the 633 nm HeNe laser. […] For each condition, a minimum of 5 images were averaged (n>5). Errors represent standard deviation.
# as §4, §5, §1
smiles,measurement,setting,value
C=CCC(NCc1ccc([N+](=O)[O-])cc1)c1cn(C)c2cc(C)c(C3=C4C=CC(=O)C=C4[Si](C)(C)c4c3cc3c5c4CCCN5CCC3)cc12 (stereo not shown) [FP1],dye efflux: change in fluorescence,[1],no statistically significant decrease in fluorescence
same,photostability toward repeated irradiation,[2],no decrease in fluorescence
same,fold increase in fluorescence intensity (confocal),"[3]; 2 μM FP1, 1 mM FA, 1 hr",1.2 fold
same,fold increase in fluorescence intensity (confocal),"[3]; 2 μM FP1, 1 mM FA, 2 hrs",1.3 fold
same,fold increase in fluorescence intensity (confocal),"[3]; 2 μM FP1, 1 mM FA, 3 hrs",1.6 fold
same,fold increase in fluorescence intensity (confocal),"[3]; 2 μM FP1, 2.5 mM FA, 1 hr",1.2 fold
same,fold increase in fluorescence intensity (confocal),"[3]; 2 μM FP1, 2.5 mM FA, 2 hrs",1.7 fold
same,fold increase in fluorescence intensity (confocal),"[3]; 2 μM FP1, 2.5 mM FA, 3 hrs",2.2 fold
same,fold increase in fluorescence intensity (confocal),"[3]; 2 μM FP1, 5 mM FA, 1 hr",2.1 fold
same,fold increase in fluorescence intensity (confocal),"[3]; 2 μM FP1, 5 mM FA, 2 hrs",2.6 fold
same,fold increase in fluorescence intensity (confocal),"[3]; 2 μM FP1, 5 mM FA, 3 hrs",~3 fold and 2.9 fold and 2.8 fold
same,"Φ (quantum efficiency, ΦF)",[4],undetectable levels
same,ε,[4],29000 M⁻¹ cm⁻¹
same,λabs,[4],620 nm
same,λem,[4],649 nm
same,fold fluorescence increase,"[5]; 1 μM FP1, 1 mM acetaldehyde, 3 hrs",1.9 fold
same,cross-reactivity with aldehyde containing species,"[5]; 1 μM FP1, 1 mM of the various analytes",only minimal cross-reactivity
same,change in fluorescence,[5]; 1 mM hydrogen peroxide,no significant change in fluorescence
same,chemical stability in the presence of intracellular reductants,"[5]; cysteine, glutathione, hydrogen sulfide, 1 mM, 3 hrs",no aberrant reactivity
same,staining pattern (overlay with ER-Tracker Green),[6],"stained the cytoplasm, as well as the endoplasmic reticulum"
same,fold fluorescence increase (time-lapse imaging),"[7]; NS1, 1 μM FP1, on-stage addition of 1 mM FA at 25° C., 2 hrs",1.3 fold
same,fold increase in fluorescence intensity (confocal),"[7]; NS1, 2 μM FP1, 1 mM FA, 1 hr",0 fold
same,fold increase in fluorescence intensity (confocal),"[7]; NS1, 2 μM FP1, 1 mM FA, 2 hrs",1.1 fold
same,fold increase in fluorescence intensity (confocal),"[7]; NS1, 2 μM FP1, 1 mM FA, 3 hrs",1.6 fold
same,fold increase in fluorescence intensity (confocal),"[7]; NS1, 2 μM FP1, 2.5 mM FA, 1 hr",1.3 fold
same,fold increase in fluorescence intensity (confocal),"[7]; NS1, 2 μM FP1, 2.5 mM FA, 2 hrs",1.5 fold
same,fold increase in fluorescence intensity (confocal),"[7]; NS1, 2 μM FP1, 2.5 mM FA, 3 hrs",2.0 fold
same,fold increase in fluorescence intensity (confocal),"[7]; NS1, 2 μM FP1, 5 mM FA, 1 hr",1.8 fold
same,fold increase in fluorescence intensity (confocal),"[7]; NS1, 2 μM FP1, 5 mM FA, 2 hrs",2.0 fold
same,fluorescence increase (confocal),"[7]; NS1, 0.25 mM FA, 37° C., 3 hrs",16%
same,signal enhancement (confocal),"[7]; NS1, 0.5 mM FA, 37° C., 3 hrs",38%
